Experimental data taken from US8389728B2, “Pollen tube stimulants from Arabidopsis pistils” (The Arizona Board of Regents, priority 2009, dated 2013).

How the values were obtained:
[1] = test system: Arabidopsis pollen; assay: Time lapse imaging of pollen germination and pollen tube growth; format: cell-based, Arabidopsis thaliana; details: for initiation of germination compared to no compound controls: 0.02 mg compound in 50 μL PGM, time lapse > 12 hours; for rate of pollen germination (in words): 0.02 mg compound in 50 μL of pollen growth medium
Protocol: (§1) Using the optimal concentration of compound for pollen tube stimulation (0.02 mg compound dispensed into 50 μL of pollen growth medium) pollen tube growth were time lapse imaged for a duration of greater than 12 hours. […] For example, Landsberg pollen grew about 130 μm longer in the presence of compound A compared to compound B (FIG. 11B).

[2] = test system: pollen from the Arabidopsis Columbia strain; assay: Time course of pollen germination and tube growth, Columbia strain; format: cell-based, Arabidopsis thaliana
Protocol: as §1

[3] = test system: pollen from the Landsberg strain; assay: Time course of pollen germination and tube growth, Landsberg strain; format: cell-based, Arabidopsis thaliana; details: 0.02 mg compound
Protocol: as §1

[4] = test system: Arabidopsis thaliana, ecotype Columbia; assay: Stimulation of pollen germination and pollen tube growth in vivo (seed yield); details: sprayed onto plants after blossoms open
From the text: The stimulation of pollen germination in vivo may be achieved by applying an effective amount of one or both Compound A or Compound B, or functional derivative thereof, to a plant, such as Arabidopsis thaliana, ecotype Columbia, or another plant that is sufficiently evolutionarily related to Arabidopsis, such as a member of family Brassicaceae. The pollen growth stimulant can be applied in any formulation such as described herein and by any method of applying a compound to the flower of a plant. For example, an effective amount of Compound A can be sprayed onto any given number of plants in an area after blossoms open and pistils are exposed.

[5] = Han et al. 2007; cited from earlier work

| Structure (SMILES) | initiation of germination compared to no compound controls [1] | rate of pollen germination (in words) [1] | extent of pollen growth, compound A versus B (in words) [2] | additional pollen tube length in the presence of compound A compared to compound B [3] | seed yield of plants exposed versus not exposed [4] | solubility in ethyl acetate [5] |
| --- | --- | --- | --- | --- | --- | --- |
| C[S+]([O-])N1CCC2CCCCC2C1 (stereo not drawn) [Compound B, 2-Methylsulfinyldecahydroisoquinoline] | approximately two hours earlier | enhanced the rate of pollen germination | grew to a similar extent |  |  |  |
| C[S+]([O-])N1CCCC2CCCCC21 (stereo not drawn) [Compound A, 1-Methylsulfinyldecahydroquinoline] | approximately two hours earlier | enhanced the rate of pollen germination | grew to a similar extent | about 130 μm | increased seed yield |  |
| O=c1c(O)c(-c2ccc(O)cc2)oc2cc(O)cc(O)c12 [kaempferol] |  |  |  |  |  | highly soluble in ethyl acetate |
